Measurements taken from PubChem BioAssay (NCI).
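Values below derive from 48-hour exposures of cells grown in 96-well plates, with endpoints linearly interpolated between the two concentrations bracketing the appropriate inhibition level. Here, GI50 denotes the concentration required for 50% inhibition of growth. At the TGI there is no net growth.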

What was measured:
Assay in all cases: NCI tumour cell line growth inhibition, 48 h
MOLT-4 leukemia = tested on: MOLT-4 leukemia
IGROV1 ovarian = tested on: IGROV1 ovarian
SW-620 colon = tested on: SW-620 colon
RPMI-8226 leukemia = tested on: RPMI-8226 leukemia
HCT-116 colon = tested on: HCT-116 colon
PC-3 prostate = tested on: PC-3 prostate
HCT-15 colon = tested on: HCT-15 colon
NCI/ADR-RES ovarian = tested on: NCI/ADR-RES ovarian
CAKI-1 renal = tested on: CAKI-1 renal
SF-268 CNS = tested on: SF-268 CNS

Row | SMILES | TGI (MOLT-4 leukemia) | TGI (IGROV1 ovarian) | TGI (SW-620 colon) | TGI (RPMI-8226 leukemia) | TGI (HCT-116 colon) | TGI (PC-3 prostate) | TGI (HCT-15 colon) | TGI (NCI/ADR-RES ovarian) | TGI (CAKI-1 renal) | TGI (SF-268 CNS) | GI50 (MOLT-4 leukemia) | GI50 (IGROV1 ovarian) | GI50 (SW-620 colon) | GI50 (RPMI-8226 leukemia) | GI50 (HCT-116 colon) | GI50 (PC-3 prostate) | GI50 (HCT-15 colon) | GI50 (NCI/ADR-RES ovarian) | GI50 (CAKI-1 renal) | GI50 (SF-268 CNS)
1 | NC(N)=N/N=C/c1cc(Cl)cc(Cl)c1O | > 100 µM | > 100 µM | > 100 µM | > 100 µM | > 100 µM | > 100 µM | 58.9 µM | > 100 µM | > 100 µM | > 100 µM |  |  |  |  |  |  |  |  |  | 
2 | CN(C)Cc1c[nH]c2c1C(=O)c1c(c(O)c3ccccc3c1O)C2=O | > 100 µM | 37.2 µM | 14.6 µM | 22.2 µM | 34.8 µM | 22.2 µM | 16.2 µM | 22.8 µM | 23.9 µM | 23.9 µM | 3.42 µM | 3.34 µM | 3.37 µM | 4.16 µM | 8.17 µM | 5.71 µM | 5.02 µM | 4.29 µM | 10.8 µM | 8.24 µM
3 | CCCCCc1c(C)[nH]c(/C=C2\N=C(c3ccc[nH]3)C=C2CC)c1C | 0.108 µM | 0.163 µM | 0.17 µM | 0.0962 µM | 0.0255 µM | 1.23 µM | 0.125 µM | 0.124 µM | 0.214 µM | 0.802 µM | < 0.01 µM | 0.0268 µM | < 0.01 µM | < 0.01 µM | < 0.01 µM | < 0.011 µM | < 0.01 µM | 0.0139 µM | 0.0191 µM | < 0.01 µM
